Drawing on PubChem BioAssay (NCI), this text covers GI50 and TGI for eleven compounds.

Holding throughout (assay): DTP human tumour cell line panel, 48 h
For test [1], the system named is 786-0 renal.
Test [2] deals with A549 NSCLC.
The subject of test [3] is COLO 205 colon.
The subject of test [4] is EKVX NSCLC.
Test [5] has as its system HCT-116 colon.
The subject of test [6] is MALME-3M melanoma.
Test [7] relates to RXF 393 renal.
Test [8] relates to SK-MEL-2 melanoma.
Test [9] deals with SNB-19 CNS.
The subject of test [10] is SF-539 CNS.

SMILES strings stand for the structures.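 Following 48 hours of exposure in 96-well plates, responses at five concentrations were used to interpolate endpoints linearly. At the GI50, growth is halved. TGI denotes the concentration required for complete inhibition of growth.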 Where only a bound is given, the exact number is not on record here.

For the compound `COC(=O)/C(C#N)=C\N1CCN(C(=O)c2ccco2)C1=S`, the GI50 is 6.25 µM in [1]; 14.6 µM in test [2]; 31.7 µM in test [3]; 10.2 µM in test [4]; 3.95 µM in [5]; 32.7 µM in [6]. Besides, the GI50 was 3.1 µM in test [7], 2.94 µM in test [8] and 54.9 µM in test [9]. Further, the TGI in test [1] is 21.7 µM; in test [2], 37.7 µM; in test [3], more than 100 µM; in [4], 28.5 µM; in test [5] it was 16 µM; in [6], 63.7 µM. In addition, the total growth inhibition concentration (TGI) is 7.71 µM in test [7], 8.39 µM in test [8] and more than 100 µM in test [9].
As to `COc1cc2cc3c4c(cc(OC)c(OC)c4c2cc1OC)CCN3C(=O)CCCC(=O)O`, the TGI in test [1], in test [2], in test [3], in test [4], in test [5] and in test [6] was more than 100 µM in each case. Besides, the TGI in test [7], in [10], in [8] and in [9] was more than 100 µM throughout.
Regarding `CCCOc1ccc(/C(Cl)=C(\C=O)c2ccc(OC)c(OC)c2)cc1OCCC`, the total growth inhibition concentration (TGI) was more than 100 µM in test [1]; more than 100 µM in [2]; 14.6 µM in test [3]; 50.4 µM in test [4]; 10.8 µM in test [5]; 38.8 µM in test [6]. Further, the TGI in [7] is 25.3 µM; in test [10], 55.1 µM; in [8], 32 µM; in [9] it was more than 100 µM.
Regarding `Cc1ccc(/C=C(\C#N)n2nnc3cc(Cl)c(Cl)cc32)cc1`, the GI50 in test [1] was 2.46 µM; in test [2] it was 3.58 µM; in test [3], 2.62 µM; in test [4], 3.48 µM; in test [5], 1.54 µM; in test [6], 2.18 µM. Besides, the results for the GI50 in test [7], in test [10] and in [8] were 2.01 µM, 2.53 µM and 3.96 µM, respectively. Moreover, the TGI in test [1] is 6 µM; in test [2] it was more than 100 µM; in [3], 7.16 µM; in test [4] it was more than 100 µM; in test [5] it was 3 µM; in test [6], 6.21 µM. For the same compound, the TGI was 5.69 µM in test [7], 6.6 µM in test [10] and more than 100 µM in test [8].
Take `NC(=O)c1ccccc1NC(=O)C(=O)C(C(=O)c1ccc2ccccc2c1)C1OC(=O)c2ccccc21` (centres undefined): the TGI was 19.9 µM in test [1]; 50.5 µM in test [2]; 24.6 µM in [3]; 75.6 µM in test [4]; 23 µM in test [5]; 26.3 µM in [6]. The TGI in test [7] stood at 16.8 µM; in [8], 33.2 µM; in test [9] it was 20.7 µM.
With `CN(C)c1cccc(-c2cc(=O)c3ccccc3[nH]2)c1`, the TGI in test [1], in test [2], in test [3], in test [4], in test [5] and in test [6] was more than 100 µM each time. In addition, the TGI in test [7], in [10] and in test [9] was more than 100 µM throughout. Further, the GI50 in [5] was 58.6 µM; in test [7] it was 35.4 µM.
In the case of `NC(=S)N/N=C(/CC(=O)c1ccc([N+](=O)[O-])cc1)C(=O)Nc1ncc([N+](=O)[O-])s1`, the concentration for total growth inhibition (TGI) in test [1], in [2], in [3], in [4], in test [5] and in test [6] was more than 100 µM throughout. Further, the TGI in test [7], in [8] and in test [9] was more than 100 µM each time.
On to `O=C1CCCCC/C=C2/CC[C@H](Sc3ccccc3)[C@@H]12`, for which the TGI in test [1], in test [2], in test [3], in test [4], in test [5] and in test [6] was more than 100 µM throughout. In addition, the TGI in [7], in [8] and in test [9] was more than 100 µM throughout.
On to `COc1cc(CNC(=O)/C=C/C=C/c2ccc3c(c2)OCO3)ccc1OCc1cn(-c2ccc(Cl)c(Cl)c2)nn1`, for which the GI50 in test [1] was 2.03 µM; in test [2], 0.999 µM; in [4], 2.95 µM; in test [5], 1.22 µM; in test [6], 0.476 µM; in test [7], 1.69 µM. Besides, the figures for the GI50 in test [10], in test [8] and in [9] were 3.26 µM, 1.74 µM and 2.5 µM, respectively. The TGI in test [1] turned out to be 4.28 µM; in test [2] it was 4.18 µM; in test [4] it was 13.4 µM; in [5], 2.84 µM; in [6], 1.92 µM; in [7], 3.75 µM. Moreover, the TGI in test [10] turned out to be 12.3 µM; in [8], 3.86 µM; in [9] it was 12.4 µM.
Consider `C/C(=N/O)C1CC=C(S(=O)(=O)c2ccccc2)C1` (centres undefined), for which the TGI in test [1], in test [2], in [3], in test [6], in test [7] and in [10] was more than 100 µM each time. For the same compound, the TGI in [8] and in test [9] was more than 100 µM throughout.
With `CN(C)CCNC(=O)c1cccc2nc3ccc4ccccc4c3nc12`, the TGI in test [1] came out at 1.99 µM; in test [2] it was 0.253 µM; in [3] it was 0.206 µM; in [4], 0.468 µM; in [5], 0.205 µM; in [7], 0.198 µM. In addition, the results for the TGI in [10], in [8] and in test [9] were 0.271 µM, 0.335 µM and 0.921 µM, respectively.
